# Patent US20260109712A1, “RIFAMYCINS FOR NONTUBERCULOUS MYCOBACTERIA” (priority 2022, published 2026)
# Where two headings read alike, the source gives them in different places.
# Assays:
# [1] = system: M. abscessus ATCC 19977; assay: MIC assay in 96-well plate format, wild-type strain; assay type: cell-based, Mycobacterium abscessus; conditions: for MIC ratio: WT MIC/Δarr strain MIC
# Protocol: (§1) MIC determination was carried out in 96-well plate format as previously described.^[13-14] 96-well plates were initially set up with 100 μL of 7H9 per well. For each compound, a ten-point two-fold dilution series starting at twice the desired highest concentration was dispensed onto the 96-well plates using a Tecan D300e Digital Dispenser, with the DMSO concentration normalized to 2%. M. abscessus culture grown to mid-log phase (OD600=0.4-0.6) was diluted to OD600=0.1 (1×10^7 CFU/mL). […] Untreated control wells are included on each plate that contain bacteria suspension and 1% DMSO. Plates were sealed with parafilm, stored in boxes with wet paper towels and incubated at 37° C. with shaking (110 RPM). Plates were incubated for 3 days. To determine growth, OD600 was measured using a Tecan Infinite M200 plate reader on Day 0 and Day 3. Two biological replicates were performed. Clarithromycin was included in each experiment as a positive control.
# (§2) For each well on the 96-well plate, bacterial growth was calculated by subtracting the Day 0 OD600 value from the Day 3 OD600 value. […] For compound-containing wells, percentage growth was calculated by dividing their growth values by the average drug-free bacterial growth for the compound series and multiplying by 100. For each compound series, we plotted percentage growth versus compound concentration.
# [2] = system: Δarr M. abscessus; assay: MIC assay, isogenic arr-deleted strain; assay type: cell-based, Mycobacterium abscessus; conditions: arr-deleted strain; 90% growth inhibition
# Protocol: as §1, §2
# [3] = Plasma protein binding assay (rapid equilibrium dialysis); assay type: in vitro ADME; conditions: 4 h, 10000 ng/mL
# Protocol: DMSO stocks were spiked into plasma to a concentration of 10,000 ng/mL. 200 μL of spiked plasma was pipetted into the sample chamber of the rapid equilibrium dialysis (RED) cartridge. 350 μL of PBS was added to the adjacent cartridge. The plate containing the RED was sealed and incubated at 37° C. on the thermomixer at 300 RPM for 4 h. After incubation, 50 μL aliquots of plasma were removed and added to 50 μL of blank plasma in a deep well plate (1:1). Similarly, 50 μL aliquots of PBS were removed and added to 50 μL of blank plasma. This created an identical matrix between buffer and non-buffer samples. Samples were processed and quantified as specified in the LC-MS/MS analytical method.
# [4] = M. abscessus ATCC 19977, 90% growth inhibition, read-out: WT Mab MIC
# [5] = Mycobacterium abscessus ATCC 19977, Table 11, read-out: MIC
# [6] = Mycobacteroides abscessus, ATCC19977, Table 15, heterocyclic aromatic carbamates, read-out: WT Mab MIC
# [7] = Mycobacteroides abscessus, ATCC19977, Table 14, carbamate analogs, read-out: WT Mab MIC
structure (smiles),measurement,setting,value
CCC(C)C(=O)OC1C(C)C(OC)C=COC2(C)Oc3c(C)c(O)c4c(c3C2=O)C2=NC3(CCN(CC(C)C)CC3)NC2=C(NC(=O)C(C)=CC=CC(C)C(O)C(C)C(O)C1C)C4=O (mixture of isomers) [5k],MIC,[1]; [4],1.1 µM
same,MIC ratio,[1],39.3
same,Δarr Mab MIC,[2],0.028 µM
"CO[C@H]1/C=C/O[C@@]2(C)Oc3c(C)c(O)c4c(c3C2=O)C2=NC3(CCN(CC(C)C)CC3)NC2=C(NC(=O)/C(C)=C/C=C/[C@H](C)[C@H](O)[C@@H](C)[C@@H](O)[C@@H](C)[C@H](OC(=O)c2cccc(C)c2)[C@@H]1C)C4=O [5c, 25-O-(3-methylbenzoyl)-25-O-desacetyrifabutin]",MIC,[1]; [4],0.075 µM
same,MIC ratio,[1],1.2
same,Δarr Mab MIC,[2],0.065 µM
"CO[C@H]1/C=C/O[C@@]2(C)Oc3c(C)c(O)c4c(c3C2=O)C2=NC3(CCN(CC(C)C)CC3)NC2=C(NC(=O)/C(C)=C/C=C/[C@H](C)[C@H](O)[C@@H](C)[C@@H](O)[C@@H](C)[C@H](OC(=O)c2ccc(C)cc2)[C@@H]1C)C4=O [5d, 25-O-(4-methylbenzoyl)-25-O-desacetyrifabutin]",MIC,[1]; [4],0.2 µM
same,MIC ratio,[1],1.8
same,Δarr Mab MIC,[2],0.11 µM
CO[C@H]1/C=C/O[C@@]2(C)Oc3c(C)c(O)c4c(c3C2=O)C2=NC3(CCN(CC(C)C)CC3)NC2=C(NC(=O)/C(C)=C/C=C/[C@H](C)[C@H](O)[C@@H](C)[C@@H](O)[C@@H](C)[C@H](OC(=O)N2CCN(C)C(C)C2)[C@@H]1C)C4=O (stereo partly drawn) [UMN52],MIC,[1]; [5],0.097 µM
"CO[C@H]1/C=C/O[C@@]2(C)Oc3c(C)c(O)c4c(c3C2=O)C2=NC3(CCN(CC(C)C)CC3)NC2=C(NC(=O)/C(C)=C/C=C/[C@H](C)[C@H](O)[C@@H](C)[C@@H](O)[C@@H](C)[C@H](OC(=O)c2cc(Cl)c(Cl)cc2C(=O)O)[C@@H]1C)C4=O [UMN99, 25-O-(6-carboxyl-3,4-dichlorobenzoyl)-25-O-desacetyrifabutin]",MIC,[1]; [5],0.1 µM
CO[C@H]1/C=C/O[C@@]2(C)Oc3c(C)c(O)c4c(c3C2=O)C2=NC3(CCN(CC(C)C)CC3)NC2=C(NC(=O)/C(C)=C/C=C/[C@H](C)[C@H](O)[C@@H](C)[C@@H](O)[C@@H](C)[C@H](OC(=O)NCc2cn(-c3cccc(Br)c3)nn2)[C@@H]1C)C4=O [UMN104],MIC,[1]; [5],0.032 µM
CO[C@H]1/C=C/O[C@@]2(C)Oc3c(C)c(O)c4c(c3C2=O)C2=NC3(CCN(CC(C)C)CC3)NC2=C(NC(=O)/C(C)=C/C=C/[C@H](C)[C@H](O)[C@@H](C)[C@@H](O)[C@@H](C)[C@H](OC(=O)Nc2ccccc2F)[C@@H]1C)C4=O [UMN106],MIC,[1]; [5],0.034 µM
CO[C@H]1/C=C/O[C@@]2(C)Oc3c(C)c(O)c4c(c3C2=O)C2=NC3(CCN(CC(C)C)CC3)NC2=C(NC(=O)/C(C)=C/C=C/[C@H](C)[C@H](O)[C@@H](C)[C@@H](O)[C@@H](C)[C@H](OC(=O)Nc2cccc(F)c2)[C@@H]1C)C4=O [UMN107],MIC,[1]; [5],0.1 µM
CO[C@H]1/C=C/O[C@@]2(C)Oc3c(C)c(O)c4c(c3C2=O)C2=NC3(CCN(CC(C)C)CC3)NC2=C(NC(=O)/C(C)=C/C=C/[C@H](C)[C@H](O)[C@@H](C)[C@@H](O)[C@@H](C)[C@H](OC(=O)Nc2ccc(F)cc2)[C@@H]1C)C4=O [UMN108],MIC,[1]; [5],0.062 µM
CO[C@H]1/C=C/O[C@@]2(C)Oc3c(C)c(O)c4c(c3C2=O)C2=NC3(CCN(CC(C)C)CC3)NC2=C(NC(=O)/C(C)=C/C=C/[C@H](C)[C@H](O)[C@@H](C)[C@@H](O)[C@@H](C)[C@H](OC(=O)Nc2ccccn2)[C@@H]1C)C4=O [UMN117],ƒu,[3],0.9%
same,MIC,[1]; [6],0.025 µM
CO[C@H]1/C=C/O[C@@]2(C)Oc3c(C)c(O)c4c(c3C2=O)C2=NC3(CCN(CC(C)C)CC3)NC2=C(NC(=O)/C(C)=C/C=C/[C@H](C)[C@H](O)[C@@H](C)[C@@H](O)[C@@H](C)[C@H](OC(=O)Nc2ccnnc2)[C@@H]1C)C4=O [UMN119],ƒu,[3],6.1%
same,MIC,[1]; [6],0.05 µM
COc1ccc(S(=O)(=O)NC(=O)O[C@H]2[C@H](C)[C@H](O)[C@H](C)[C@@H](O)[C@@H](C)/C=C/C=C(\C)C(=O)NC3=C4NC5(CCN(CC(C)C)CC5)N=C4c4c(c(O)c(C)c5c4C(=O)[C@@](C)(O/C=C/[C@H](OC)[C@H]2C)O5)C3=O)cc1 [UMN122],MIC,[1]; [5],0.14 µM
CO[C@H]1/C=C/O[C@@]2(C)Oc3c(C)c(O)c4c(c3C2=O)C2=NC3(CCN(CC(C)C)CC3)NC2=C(NC(=O)/C(C)=C/C=C/[C@H](C)[C@H](O)[C@@H](C)[C@@H](O)[C@@H](C)[C@H](OC(=O)Nc2nccc3ccccc23)[C@@H]1C)C4=O [UMN124],MIC,[1]; [5],0.027 µM
CO[C@H]1/C=C/O[C@@]2(C)Oc3c(C)c(O)c4c(c3C2=O)C2=NC3(CCN(CC(C)C)CC3)NC2=C(NC(=O)/C(C)=C/C=C/[C@H](C)[C@H](O)[C@@H](C)[C@@H](O)[C@@H](C)[C@H](OC(=O)Nc2ccc3cnccc3n2)[C@@H]1C)C4=O [UMN127],MIC,[1]; [5],0.03 µM
CO[C@H]1/C=C/O[C@@]2(C)Oc3c(C)c(O)c4c(c3C2=O)C2=NC3(CCN(CC(C)C)CC3)NC2=C(NC(=O)/C(C)=C/C=C/[C@H](C)[C@H](O)[C@@H](C)[C@@H](O)[C@@H](C)[C@H](OC(=O)Nc2cnn3ccccc23)[C@@H]1C)C4=O [UMN129],MIC,[1]; [5],0.044 µM
CO[C@H]1/C=C/O[C@@]2(C)Oc3c(C)c(O)c4c(c3C2=O)C2=NC3(CCN(CC(C)C)CC3)NC2=C(NC(=O)/C(C)=C/C=C/[C@H](C)[C@H](O)[C@@H](C)[C@@H](O)[C@@H](C)[C@H](OC(=O)Nc2cnc3cc(C)nn3c2)[C@@H]1C)C4=O [UMN130],MIC,[1]; [5],0.049 µM
CO[C@H]1/C=C/O[C@@]2(C)Oc3c(C)c(O)c4c(c3C2=O)C2=NC3(CCN(CC(C)C)CC3)NC2=C(NC(=O)/C(C)=C/C=C/[C@H](C)[C@H](O)[C@@H](C)[C@@H](O)[C@@H](C)[C@H](OC(=O)Nc2cnc3ccccc3n2)[C@@H]1C)C4=O [UMN134],MIC,[1]; [5],0.03 µM
CO[C@H]1/C=C/O[C@@]2(C)Oc3c(C)c(O)c4c(c3C2=O)C2=NC3(CCN(CC(C)C)CC3)NC2=C(NC(=O)/C(C)=C/C=C/[C@H](C)[C@H](O)[C@@H](C)[C@@H](O)[C@@H](C)[C@H](OC(=O)Nc2cn3ccccc3n2)[C@@H]1C)C4=O [UMN136],MIC,[1]; [5],0.061 µM
CO[C@H]1/C=C/O[C@@]2(C)Oc3c(C)c(O)c4c(c3C2=O)C2=NC3(CCN(CC(C)C)CC3)NC2=C(NC(=O)/C(C)=C/C=C/[C@H](C)[C@H](O)[C@@H](C)[C@@H](O)[C@@H](C)[C@H](OC(=O)Nc2cc3ccccn3n2)[C@@H]1C)C4=O [UMN142],MIC,[1]; [5],0.033 µM
CO[C@H]1/C=C/O[C@@]2(C)Oc3c(C)c(O)c4c(c3C2=O)C2=NC3(CCN(CC(C)C)CC3)NC2=C(NC(=O)/C(C)=C/C=C/[C@H](C)[C@H](O)[C@@H](C)[C@@H](O)[C@@H](C)[C@H](OC(=O)Nc2cn3ccsc3n2)[C@@H]1C)C4=O [UMN145],MIC,[1]; [5],0.065 µM
CO[C@H]1/C=C/O[C@@]2(C)Oc3c(C)c(O)c4c(c3C2=O)C2=NC3(CCN(CC(C)C)CC3)NC2=C(NC(=O)/C(C)=C/C=C/[C@H](C)[C@H](O)[C@@H](C)[C@@H](O)[C@@H](C)[C@H](OC(=O)NC2CCN(C)CC2)[C@@H]1C)C4=O [UMN146],ƒu,[3],10.8%
same,MIC,[1]; [7],0.09 µM
CO[C@H]1/C=C/O[C@@]2(C)Oc3c(C)c(O)c4c(c3C2=O)C2=NC3(CCN(CC(C)C)CC3)NC2=C(NC(=O)/C(C)=C/C=C/[C@H](C)[C@H](O)[C@@H](C)[C@@H](O)[C@@H](C)[C@H](OC(=O)NC2CCN(C(C)C)CC2)[C@@H]1C)C4=O [UMN147],ƒu,[3],7.5%
same,MIC,[1]; [7],0.098 µM
CCN1CCC(NC(=O)O[C@H]2[C@H](C)[C@H](O)[C@H](C)[C@@H](O)[C@@H](C)/C=C/C=C(\C)C(=O)NC3=C4NC5(CCN(CC(C)C)CC5)N=C4c4c(c(O)c(C)c5c4C(=O)[C@@](C)(O/C=C/[C@H](OC)[C@H]2C)O5)C3=O)CC1 [UMN149],ƒu,[3],10.4%
same,MIC,[1]; [7],0.078 µM
CO[C@H]1/C=C/O[C@@]2(C)Oc3c(C)c(O)c4c(c3C2=O)C2=NC3(CCN(CC(C)C)CC3)NC2=C(NC(=O)/C(C)=C/C=C/[C@H](C)[C@H](O)[C@@H](C)[C@@H](O)[C@@H](C)[C@H](OC(=O)NC2CCN(CC(C)C)CC2)[C@@H]1C)C4=O [UMN150],ƒu,[3],3.6%
same,MIC,[1]; [7],0.054 µM
